The source of these data is ChEMBL document CHEMBL4145608, “Dehydrodiconiferyl Alcohol Inhibits Osteoclast Differentiation and Ovariectomy-Induced Bone Loss through Acting as an Estrogen Receptor Agonist” (J Nat Prod, 2018).

Calls of active or inactive are those of the source. The calls are words filed in the database; no cut-off is given here.

The subject of assay [1] is RAW264.7. The experiment in a line: Inhibition of RANKL-induced osteoclast differentiation in mouse RAW264.7 cells harboring ERalpha siRNA assessed as decrease in number of TRAP-positive multinucleated cells at 20 uM after 5 days by microscopy. The format is functional, cell-based.
In assay [2] the test system is RAW264.7. As to the kind of experiment: Inhibition of RANKL-induced osteoclast differentiation in mouse RAW264.7 cells harboring ERalpha siRNA assessed as decrease in TRAP mRNA level at 20 uM after 24 hrs by qRT-PCR method. The format is functional, cell-based. For orientation: Real-time PCR tracks product formation cycle by cycle.
Assay [3] relates to RAW264.7. As to the kind of experiment: Inhibition of NF-kappaB/p38 MAPK signaling pathway in mouse RAW264.7 cells assessed as reduction in RANKL-induced NFATc1 mRNA level after 24 hrs by qRT-PCR method. Type of assay: cell-based.
For another assay, the system named is Mus musculus. The experiment in a line: Anti-osteoporotic activity in Balb/c mouse assessed as inhibition of OVX-induced c-Fos mRNA expression level in bone marrow at 25 to 100 mg/kg, ip administered for 4 weeks daily by qRT-PCR method. The format is functional, organism-based.
Assay [4] concerns RAW264.7. As to the kind of experiment: Inhibition of RANKL-induced osteoclast differentiation in mouse RAW264.7 cells harboring AMPKalpha1 siRNA assessed as decrease in size of TRAP-positive multinucleated cells after 5 days by microscopy. Type of assay: functional, cell-based.
Assay [5] concerns the target MAP kinase p38 (Mus musculus) (UniProt P47811+O08911+Q9WUI1+Q9Z1B7). As to the kind of experiment: Inhibition of p38 MAPK signaling pathway in mouse RAW264.7 cells assessed as reduction in RANKL-induced ERK phosphorylation at 10 to 40 uM after 30 mins by Western blot method. The format is cell-based. For orientation: Immunoblotting shows a protein as a band on a membrane.

Assay [6] has as its system RAW264.7. As to the kind of experiment: Inhibition of NF-kappaB/p38 MAPK signaling pathway in mouse RAW264.7 cells assessed as reduction in RANKL-induced c-Fos mRNA level after 24 hrs by qRT-PCR method. Type of assay: cell-based.

For `COc1cc(C2Oc3c(OC)cc(/C=C/CO)cc3C2CO)ccc1O` (configuration not stated), the inhibition entry (in the assay with RAW264.7 [1]; in the assay with RAW264.7 [2]; in the assay with RAW264.7 [4]; in assay [5]) was “inactive” throughout. Also, the inhibition result in the assay on RAW264.7 [3] and in the assay with RAW264.7 [6] was “Dose-dependent effect” throughout. Besides, the inhibition entry with Mus musculus was “Active”.
